Assay [1] relates to Hepatitis B virus. In words: Antiviral activity against HBV infected in human HepDES19 cells assessed as reduction in viral cccDNA level. It counts as functional, organism-based.
The test system of assay [2] is Hepatitis B virus. In words: Antiviral activity against HBV infected in human HepG2.2.15 cells assessed as reduction in viral DNA level after 8 days by dot-blot hybridization assay. It counts as functional, organism-based. As to conditions: HepG2.2.15, 192 h.

As to `Cc1nc2cc(NC(=O)c3ccc(S(=O)(=O)N(C)Cc4ccccc4)cc3)ccc2s1`, the EC50 in the assay with Hepatitis B virus [1] stood at 3000 nM.
`O=C(CN(c1cc(C(F)(F)F)ccc1Cl)S(=O)(=O)c1ccccc1)NCc1ccncc1`: the EC50 with Hepatitis B virus [1] was 10000 nM.
With `COC(=O)C1=C(C)NC(c2ncc(F)cc2F)=N[C@H]1c1ccc(F)cc1Cl`, the IC50 with Hepatitis B virus [2] was 53 nM.

For orientation: EC50 means the concentration that produces a half-maximal response. In general, IC50 refers to the concentration that inhibits the measured activity by half.

(Values after ChEMBL document CHEMBL4145542, “Recent progress in potential anti-hepatitis B virus agents: Structural and pharmacological perspectives” (Eur J Med Chem, 2018).)
